Results from patent publication US20260167622A1, “PAN-KRAS DEGRADING AGENT, AND PREPARATION METHOD THEREFOR AND USE THEREOF” (LEADINGTAC PHARMACEUTICAL (SHAOXING) CO., LTD., priority 2022, published 2026).

Tests used:
Type in all cases: cell-based
[1] = tested on: KRAS G13D mutant human colorectal cancer epithelial cell DLD-1; experiment: 3D cell proliferation inhibition assay, DLD-1; conditions: DLD-1, 168 h, 3D culture, 7 days, CTG
Method in brief: (§1)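 Cells were seeded in low-adsorption 96-well plates at 5×10^2 cells/well (MKN1 at 1×10^3) with compounds at final 10000-0.026 nM, 0.2% DMSO, and grown 7 days at 37° C. CTG luminescence gave inhibition relative to DMSO and medium-only controls, and IC50 came from a log-concentration curve fit.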

[2] = tested on: KRAS G12D mutant human gastric cancer cell AGS; experiment: 3D cell proliferation inhibition assay, AGS; conditions: 168 h, 3D culture, 7 days, CTG
Method in brief: as §1

[3] = tested on: KRAS G12D mutant human metastatic pancreatic cancer cell AsPc-1; experiment: 3D cell proliferation inhibition assay, AsPc-1; conditions: ASPC1, 168 h, 3D culture, 7 days, CTG
Method in brief: as §1

[4] = tested on: KRAS G12D mutant human lung cancer cell A427; experiment: 3D cell proliferation inhibition assay, A427; conditions: A-427, 168 h, 3D culture, 7 days, CTG
Method in brief: as §1

[5] = target: T1, KRAS G12V protein in SW900 cells (Homo sapiens, UniProt P01116, G12V); experiment: KRAS degradation assay (Western Blot) in SW900 cells; conditions: 24 h
T1 construct: endogenous in cells; host or cells: SW900
T1 sequence (P01116 1-188 isoform P01116-2 G12V): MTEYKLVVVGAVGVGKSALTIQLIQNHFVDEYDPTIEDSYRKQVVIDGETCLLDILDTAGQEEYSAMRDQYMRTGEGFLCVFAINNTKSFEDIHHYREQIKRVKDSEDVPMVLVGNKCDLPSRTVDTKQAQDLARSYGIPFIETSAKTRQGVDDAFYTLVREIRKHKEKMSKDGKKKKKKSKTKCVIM
Method in brief: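 Degradation of KRAS measured by Western blot after 24 h exposure to compound (0.03–3000 nM final). Values are DC50 and Dmax.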

[6] = tested on: KRAS G12C mutant human non-small cell lung cancer cell NCI-H358; experiment: 3D cell proliferation inhibition assay, NCI-H358; conditions: NCI-H358, 168 h, 3D culture, 7 days, CTG
Method in brief: as §1

Row | Structure (SMILES) | IC50 [1] [µM] | IC50 [2] [µM] | IC50 [3] [µM] | IC50 [4] [µM] | DC50 [5] [µM] | Dmax [5] [%] | IC50 [6] [µM]
1 | C#Cc1c(F)ccc2cc(O)cc(-c3ncc4c(N5CCC[C@@](C)(O)C5)nc(OCC5(CN6CCN(CC7CCC8(CC7)CCN(C(=O)c7ccc(Cl)c(N9CCC(=O)NC9=O)c7)CC8)CC6)CC5)nc4c3F)c12 [Example 1, (R)-1-(2-chloro-5-(9-((4-((1-(((7-(8-ethynyl-7-fluoro-3-hydroxynaphthalen-1-yl)-8-fluoro-4-(3-hydroxy-3-methylpiperidin-1-yl)pyrido[4,3-d]pyrimidin-2-yl)oxy)methyl)cyclopropyl)methyl)piperazin-1-yl)methyl)-3-azaspiro[5.5]undecane-3-carbonyl)phenyl)dihydropyrimidine-2,4(1H,3H)-dione] | ≤ 0.05 | ≤ 0.05 | ≤ 0.05 | ≤ 0.05 | ≤ 0.05 | 80 to 100 | ≤ 0.05
2 | CCc1c(F)ccc2cc(O)cc(-c3ncc4c(N5CCC[C@@](C)(O)C5)nc(OCC5(CN6CCN(CC7CCC8(CC7)CCN(C(=O)c7ccc(Cl)c(N9CCC(=O)NC9=O)c7)CC8)CC6)CC5)nc4c3F)c12 [Example 2, (R)-1-(2-chloro-5-(9-((4-((1-(((7-(8-ethyl-7-fluoro-3-hydroxynaphthalen-1-yl)-8-fluoro-4-(3-hydroxy-3-methylpiperidin-1-yl)pyrido[4,3-d]pyrimidin-2-yl)oxy)methyl)cyclopropyl)methyl)piperazin-1-yl)methyl)-3-azaspiro[5.5]undecane-3-carbonyl)phenyl)dihydropyrimidine-2,4(1H,3H)-dione] | ≤ 0.05 | ≤ 0.05 | ≤ 0.05 | ≤ 0.05 | ≤ 0.05 | 80 to 100 | ≤ 0.05
3 | CCc1cccc2cc(O)cc(-c3ncc4c(N5CCC[C@@](C)(O)C5)nc(OCC5(CN6CCN(CC7CCC8(CC7)CCN(C(=O)c7ccc(Cl)c(N9CCC(=O)NC9=O)c7)CC8)CC6)CC5)nc4c3F)c12 [Example 3, (R)-1-(2-chloro-5-(9-((4-((1-(((7-(8-ethyl-3-hydroxynaphthalen-1-yl)-8-fluoro-4-(3-hydroxy-3-methylpiperidin-1-yl)pyrido[4,3-d]pyrimidin-2-yl)oxy)methyl)cyclopropyl)methyl)piperazin-1-yl)methyl)-3-azaspiro[5.5]undecane-3-carbonyl)phenyl)dihydropyrimidine-2,4(1H,3H)-dione] | ≤ 0.05 | ≤ 0.05 | ≤ 0.05 | ≤ 0.05 | ≤ 0.05 | 80 to 100 | ≤ 0.05
4 | C#Cc1c(F)ccc2cc(O)cc(-c3ncc4c(N5CCC[C@@](C)(O)C5)nc(OCC5(CN6CCN(CC7CCC8(CC7)CCN(C(=O)c7ccc(C)c(N9CCC(=O)NC9=O)c7)CC8)CC6)CC5)nc4c3F)c12 [Example 6, (R)-1-(5-(9-((4-((1-(((7-(8-ethynyl-7-fluoro-3-hydroxynaphthalen-1-yl)-8-fluoro-4-(3-hydroxy-3-methylpiperidin-1-yl)pyrido[4,3-d]pyrimidin-2-yl)oxy)methyl)cyclopropyl)methyl)piperazin-1-yl)methyl)-3-azaspiro[5.5]undecane-3-carbonyl)-2-methylphenyl)dihydropyrimidine-2,4(1H,3H)-dione] | ≤ 0.05 | ≤ 0.05 | ≤ 0.05 | ≤ 0.05 | ≤ 0.05 | 80 to 100 | ≤ 0.05

Other lines, results leading:

Row | IC50 [1] [µM] | IC50 [2] [µM] | IC50 [3] [µM] | IC50 [4] [µM] | DC50 [5] [µM] | Dmax [5] [%] | IC50 [6] [µM] | Structure (SMILES)
5 | ≤ 0.05 | ≤ 0.05 | ≤ 0.05 | ≤ 0.05 | ≤ 0.05 | 80 to 100 | ≤ 0.05 | C#Cc1c(F)ccc2cc(O)cc(-c3ncc4c(N5CCC[C@@](C)(O)C5)nc(OCC5(CN6CCN(CC7CCC8(CC7)CCN(C(=O)c7ccc(OC)c(N9CCC(=O)NC9=O)c7)CC8)CC6)CC5)nc4c3F)c12 [Example 7, (R)-1-(5-(9-((4-((1-(((7-(8-ethynyl-7-fluoro-3-hydroxynaphthalen-1-yl)-8-fluoro-4-(3-hydroxy-3-methylpiperidin-1-yl)pyrido[4,3-d]pyrimidin-2-yl)oxy)methyl)cyclopropyl)methyl)piperazin-1-yl)methyl)-3-azaspiro[5.5]undecane-3-carbonyl)-2-methoxyphenyl)dihydropyrimidine-2,4(1H,3H)-dione]
6 | ≤ 0.05 | ≤ 0.05 | ≤ 0.05 | 0.05 to 0.1 | ≤ 0.05 | 80 to 100 | ≤ 0.05 | C#Cc1cccc2cc(O)cc(-c3ncc4c(N5CCC[C@@](C)(O)C5)nc(OCC5(CN6CCN(CC7CCC8(CC7)CCN(C(=O)c7ccc(Cl)c(N9CCC(=O)NC9=O)c7)CC8)CC6)CC5)nc4c3F)c12 [Example 11, (R)-1-(2-chloro-5-(9-((4-((1-(((7-(8-ethynyl-3-hydroxynaphthalen-1-yl)-8-fluoro-4-(3-hydroxy-3-methylpiperidin-1-yl)pyrido[4,3-d]pyrimidin-2-yl)oxy)methyl)cyclopropyl)methyl)piperazin-1-yl)methyl)-3-azaspiro[5.5]undecane-3-carbonyl)phenyl)dihydropyrimidine-2,4(1H,3H)-dione]
